Laboratory results taken from patent US20030208035A1, “Antifungal and/or antibacterial peptides, preparation methods, compositions containing same and methods of treating mammals and/or plants” (priority 2000, published 2003).
Bridges are numbered along the chain shown (N, C = ends). Where no end group is shown, it is not given here.

What was measured:
Aspergillus fumigatus = assay: anti-Aspergillus fumigatus growth inhibition test in liquid medium (96-well microplates); format: cell-based; details: fold relative to Ard1
How it was run: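 Diluted peptides incubated with A. fumigatus spores (1000/well) in PDB medium containing tetracycline and cefotaxime at 37° C for 24 h to 48 h, with water controls. Germination and hyphal size and morphology scored 0 to 9 under binocular microscope to define the MIC.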

[1] = system: Candida albicans (IHEM 8060 strain); assay: Candida albicans infected model, lethal in mice (disseminated candidiasis); format: in vivo; details: for mice alive on day 7 (out of 10): placebo 5 alive; for time of onset of the 1st death: placebo day 2.5; for effect on mouse survival relative to placebo treatment: 3.10^6 CFU, three i.v. injections, 10 mice of 15 g; for effect on mouse survival relative to placebo treatment / morbidity score up to post-infection day 5 / median mortality, post-infection day / delay of onset of the 1st death: 5 mg/kg; for morbidity score up to post-infection day 5: placebo 1/50; for median mortality, post-infection day: placebo day 4; for delay of onset of the 1st death: placebo first deaths 2.5 days
Protocol: Heliomycin and its analogues were tested for in vivo antifungal activity in a model infected with Candida albicans, lethal in mice. The pathogenic agent Candida albicans (IHEM 8060 strain) was inoculated by intravenous route (i.v.) at a dose of 2.5×10^6 CFU/mouse. the peptides were administered by i.v. route in 4 injections 6 h, 24 h, 48 h and 72 h after infection. Assessment criteria for activity were evaluation of survival and morbidity at 7 days. The morbidity scores, which take into account general state of health (condition of fur, mobility, hydration) were determined for each mouse with values ranging from 0 to 5 and defined below: 0=dead, 1=moribund, 2=very ill, 3=ill, 4=slightly ill, 5=healthy. The sum of the individual scores was calculated for each group, a score of 50 for a group of 10 mice meaning that all the mice were healthy.
Following a standard protocol, groups of 10 Swiss OF1 male mice weighing 12 g were infected via i.v. route with a dose of 2.5×10^6 CFU/mouse. Heliomycin and Ard1 were administered by i.v. route in 4 injections, 6 h, 24 h, 48 h and 72 h after infection. For each peptide, 2 doses were tested: 10 mg/kg and 30 mg/kg. A placebo group was injected with peptide solvent, 0.9% sodium chloride.
In this experiment, inoculation of the mice with 2.5.10^6 CFU/mouse was 50% lethal at day 5 in the group which received placebo treatment. The first deaths occurred on post-infection day 2.5 and median mortality occurred on post-infection day 5. On day 7, 5 mice were alive and the morbidity score 15/50.
In this experiment, inoculation of Swiss OF1 mice weighing 15 g with 3.10^6 CFU of Candida albicans induces 50% mortality on day 4 after infection in the group treated with the placebo. The first deaths occur 2.5 days after infection, and 100% of the mice were dead on day 5.5.
In this experiment, inoculation of the mice with 2.5.10^6 CFU/mouse was 50% lethal at day 5 and 100% at day 8 for mice in the placebo group. The first death occurred 3 days after infection. The morbidity score fell rapidly below 30/50 (25/50 at day 2.5).
The pEM35 peptide was administered at doses of 10 and 30 mg/kg/injection with 3 daily doses for 4 days (1 h, 5 h and 10 h post-infection on day 0; at 8 h, 14 h and 20 h on days 1, 2 and 3), i.e., daily doses totalling 30 and 90 mg/kg.

A. flavus = format: cell-based
Protocol: (§1) The antifungal activity was detected by a growth inhibition test in a liquid medium.
(§2) The filamentous fungi (A. fumigatus, A. flavus and A. terreus, donated by Dr. H. Koenig, Hôpital Civil, Strasbourg; and S. prolificans and F. solani donated by Drs. J. Meis and J. Mouton, University hospital, Microbioolgy Department, Nijmegen, Netherlands) were seeded on Malt-Agar slant gelose (Biomerieux) and incubated 7 days at 37° C.
(§3) The spores were then collected with 10 ml YPG medium containing 0.05% Tween 20 and filtered through a gauze. The spores were centrifuged 10 min at 1700 rpm, the residue was collected in YPG (1 g Yeast extract, 1 g Peptone, 3 g Glucose per 1 l).
(§4) The suspension was counted with a Coverslide and adjusted to 10^4 spores/ml.
(§5) 100 μl of peptide dilutions (concentration of 50 with 0.097 μg/ml peptide) were deposited in microtitration plates. 100 μl with 10^4 spores/ml of filamentous fungi, i.e. 1000 spores, were then added.
(§6) The test plates were incubated 48 h at 37° C.
(§7) Determination of minimum inhibiting concentrations (MIC) was made by observing well cover rate. The MIC score was set at 50% well covering.

Candida albicans = assay: anti-Candida albicans growth inhibition test in liquid medium (96-well microplates); format: cell-based; details: fold relative to Ard1
How it was run: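 Frozen-stock yeasts diluted in Sabouraud medium to 1 mOD at 600 nm were incubated with diluted peptide samples at 30° C. for 40 h under slight stirring. Growth inhibition was read as optical density at 600 nm against water controls.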

A. terreus = format: cell-based
Protocol: as §1, §2, §3, §4, §5, §6, §7

In the case of “DKLIGSCVWGAVNYTSNCNAECKRRGYKGGHCGSFANVNCWCQT (disulfide 7-32, 18-40, 22-42 (inferred)) [pEM31]”, the “Activity A.f. (relative activity in relation to Ard1)” value (Aspergillus fumigatus) is reported as 4-8, the “activity compared with Ard1” value ([1]; FIGS. 4-5, 10 mg/kg) is reported as “more active than Ard1” and the “morbidity score maintained for 5 days” value ([1]; FIGS. 4-5, 10 mg/kg) is reported as “higher than 40/50”. The “mice alive on day 7 (out of 10)” value ([1]; FIGS. 4-5, 10 mg/kg) was 8 mice, the “time of onset of the 1st death” value ([1]; FIGS. 4-5, 10 mg/kg) was 5.5 days and the “effect on mouse survival relative to placebo treatment” value ([1]; FIGS. 6-7) was “does not significantly increase mouse survival”. The “effectiveness in the candidiasis infected model” value ([1]; FIGS. 6-7, dose 5 mg/kg) was “not effective”, the MIC (A. flavus) was greater than 25 µg/mL and the “Activity C.a. (relative activity in relation to Ard1)” value (Candida albicans) was 2.
With “DKLIGSCVWGAVNYTSNCNAECKRRGYKGGHCGSFLNVNCWCET (disulfide 7-32, 18-40, 22-42 (inferred)) [pEM35]” the “Activity A.f. (relative activity in relation to Ard1)” value (Aspergillus fumigatus) was 2-4, the “survival rate on post-infection day 8” value ([1]; FIG. 8, 30 mg/kg/day (10 mg/kg/injection, 3 daily, 4 days), placebo 100% lethal day 8) was 80% and the “survival rate on post-infection day 8” value ([1]; FIG. 8, 90 mg/kg/day (30 mg/kg/injection, 3 daily, 4 days)) was 90%. The “morbidity score on day 8” value ([1]; FIG. 8, 30 and 90 mg/kg/day) was 30/50, the “morbidity score until day 7” value ([1]; FIG. 8, 30 and 90 mg/kg/day) was “above 40/50” and the “activity compared with Ard1” value ([1]; FIGS. 4-5, 10 mg/kg) was “more active than Ard1”. For the same sequence, the “mice alive on day 7 (out of 10)” value ([1]; FIGS. 4-5, 10 mg/kg) was 9 mice, the “time of onset of the 1st death” value ([1]; FIGS. 4-5, 10 mg/kg) was 7 days and the “morbidity score up to post-infection day 5” value ([1]; FIGS. 6-7) was 28/50. For the same sequence, the “median mortality, post-infection day” value ([1]; FIGS. 6-7) was 6 days, the “delay of onset of the 1st death” value ([1]; FIGS. 6-7) was 1.5 days and the MIC (A. terreus) was 6.25 µg/mL. The MIC (A. flavus) was 3.125 µg/mL and the “Activity C.a. (relative activity in relation to Ard1)” value (Candida albicans) was 4.
For “DKLIGSCVWGAVNYTSNCNAECKRRGYKGGHCGSFLNVNCWCQT (disulfide 7-32, 18-40, 22-42 (inferred)) [pEM46]”, the “Activity A.f. (relative activity in relation to Ard1)” value (Aspergillus fumigatus) was 6-8, the “effect on mouse survival relative to placebo treatment” value ([1]; FIGS. 6-7) was “does not significantly increase mouse survival” and the MIC (A. terreus) was 6.25 µg/mL. The “Activity C.a. (relative activity in relation to Ard1)” value (Candida albicans) was 4-8.
With “DKLIGSCVWGAVNYTSNCRAECKRRGYKGGHCGSFANVNCWCET (disulfide 7-32, 18-40, 22-42 (inferred)) [pEM51]” the “Activity A.f. (relative activity in relation to Ard1)” value (Aspergillus fumigatus) was 1, the “morbidity score up to post-infection day 5” value ([1]; FIGS. 6-7) was 11/50 and the “median mortality, post-infection day” value ([1]; FIGS. 6-7) was 5 days. For the same sequence, the “delay of onset of the 1st death” value ([1]; FIGS. 6-7) was 1.5 days, the MIC (A. terreus) was 3.125 µg/mL and the MIC (A. flavus) was 6.25 µg/mL. For the same sequence, the “Activity C.a. (relative activity in relation to Ard1)” value (Candida albicans) was 2-4.
